Laboratory results taken from patent US7119091B2, “Triazaspiro[5.5]undecane derivatives and pharmaceutical compositions comprising thereof, as an active ingredient” (Ono Pharmaceutical Co., Ltd., priority 1999, dated 2006).
Structures can show the parent of a compound that is named as a salt.

How the values were obtained:
[1] = target: human CCR5 stably over-expressing CHO cell (CCR5/CHO cell) (Homo sapiens, UniProt P51681); assay: Inhibition test on the binding of RANTES to CCR5 (RANTES-induced transient increase of Ca ion); assay type: cell-based; conditions: inhibition of Ca2+ transient increase induced by 10 nM recombinant human RANTES in CCR5/CHO cells
Procedure: (1) Isolation of Human CCR5 Gene
Human placental cDNA was prepared using Marathon cDNA amplification kit (Clontech). PCR primers hCCR5XbaI-F1: 5′-[sequence]-3′ (SEQ ID NO:1) and hCCR5XbaI-R1: 5′-[sequence]-3′ (SEQ ID NO:2) were designed based on the sequence of GenBank U54994.
Using the human placental cDNA as the template and using Ex Taq (Takara), PCR reaction (2 minutes at 95° C.→(30 seconds at 95° C., 45 seconds at 60° C., 1 minute at 72° C.)×35 times) was carried out. The thus amplified PCR product was subjected to a 1% agarose gel electrophoresis, purified using QIAquick Gel Extraction Kit (QUIAGEN) and then digested with a restriction enzyme XbaI. […] By preparing the resulting plasmid pEF-BOS-bsr/hCCR5, its DNA sequence was verified. […]
The thus established human CCR5 stably over-expressing CHO cell (CCR5/CHO cell) was suspended in Ham's F-12 medium containing FBS (10%) and dispensed in 3.0×10^6 cells/well portions into a 96 well plate. […] Transient increase in the intracellular Ca^2+ concentration induced by the human RANTES was measured using a Ca^2+ detector for 96 well use (Hamamatsu Photonics), and inhibition ratio (%) of the test compound was calculated by the following calculation formula. Inhibition ratio=(Ec−Ea)/Ec×100 • Ec: measured value of Ca^2+ transient increase by RANTES • Ea: measured value of Ca^2+ transient increase by RANTES when a test compound was added

[2] = target: T1, human CCR2-expressing cell, human monocyte cell strain THP-1 (Homo sapiens, UniProt P41597); assay: Inhibition test on the binding of MCP-1 to CCR2 (MCP-1-induced transient increase of Ca ion); assay type: cell-based; conditions: inhibition of Ca2+ transient increase induced by 30 nM recombinant human MCP-1 in THP-1 cells
T1 construct: A human CCR2-expressing cell, e.g., a human monocyte cell strain THP-1 (ATCC No. TIB-202); host or cells: THP-1
T1 sequence (P41597 1-360 isoform P41597-2): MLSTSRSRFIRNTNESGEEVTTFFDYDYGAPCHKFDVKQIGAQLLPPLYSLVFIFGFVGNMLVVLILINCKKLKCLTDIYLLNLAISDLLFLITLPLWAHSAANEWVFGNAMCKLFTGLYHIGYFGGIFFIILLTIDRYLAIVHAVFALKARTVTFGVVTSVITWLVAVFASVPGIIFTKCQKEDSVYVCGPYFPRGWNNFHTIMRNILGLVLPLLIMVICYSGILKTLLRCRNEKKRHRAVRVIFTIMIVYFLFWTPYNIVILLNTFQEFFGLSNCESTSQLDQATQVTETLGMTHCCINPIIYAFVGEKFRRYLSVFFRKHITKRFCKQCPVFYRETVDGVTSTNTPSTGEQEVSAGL
Excerpt: An assay system for finding a compound having adsorption inhibition effect on CCR5 directional HIV strain was described in the foregoing, and it is possible as a matter of course to find a compound capable of inhibiting the activity of CCR5 or a ligand thereof using this system. In the same manner, it is possible to find a compound capable of inhibiting the activity of other chemokine receptor or a ligand thereof. For example, a system for finding a compound capable of inhibiting the activity of CCR2 or a ligand thereof can be constructed. […]
A human CCR2-expressing cell, e.g., a human monocyte cell strain THP-1 (ATCC No. TIB-202), was suspended in RPMI 1640 medium containing FBS (10%), Fura-2AM (5 μM), Probenecid (2.5 mM) and HEPES (20 mM, pH 7.4) to a density of 5.0×10^6 cells/ml and incubated at 37° C. for 30 minutes under shaded condition. […] Transient increase in the intracellular Ca 2+concentration induced by the human MCP-1 was measured using a Ca^2+ detector for 96 well use (Hamamatsu Photonics), and inhibition ratio (%) of the test compound was calculated by the following calculation formula. Inhibition ratio=(Ec−Ea)/Ec×100 • Ec: measured value of Ca^2+ transient increase by MCP-1 • Ea: measured value of Ca^2+ transient increase by MCP-1 when a test compound was added

Sequence of human CCR5 stably over-expressing CHO cell (CCR5/CHO cell) (P51681 whole entry): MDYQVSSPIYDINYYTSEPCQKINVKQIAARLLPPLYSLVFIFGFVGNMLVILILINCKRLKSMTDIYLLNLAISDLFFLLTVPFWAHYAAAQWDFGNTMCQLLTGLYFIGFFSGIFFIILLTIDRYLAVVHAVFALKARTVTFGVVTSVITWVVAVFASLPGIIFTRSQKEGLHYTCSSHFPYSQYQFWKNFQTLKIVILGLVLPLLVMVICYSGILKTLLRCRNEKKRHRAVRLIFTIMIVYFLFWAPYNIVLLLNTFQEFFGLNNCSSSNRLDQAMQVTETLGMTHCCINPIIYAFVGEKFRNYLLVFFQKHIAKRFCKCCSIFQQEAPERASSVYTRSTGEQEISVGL

IC50 [1] | IC50 [2] | SMILES
50 nM |  | CCCCN1C(=O)C(CC2CCCCC2)NC(=O)C12CCN(Cc1ccc3c(c1)OCCO3)CC2 (stereo not drawn) [Example 2(1), 9-(1,4-benzodioxan-6-ylmethyl)-1-butyl-3-cyclohexylmethyl-2,5-dioxo-1,4,9-triazaspiro[5.5]undecane.hydrochloride]
50 nM |  | CCCCN1C(=O)C(CC2CCCCC2)NC(=O)C12CCN(Cc1c[nH]c(-c3ccccc3)n1)CC2 (stereo not drawn) [Example 2(2), 1-butyl-3-cyclohexylmethyl-2,5-dioxo-9-(2-phenylimidazol-4-ylmethyl)-1,4,9-triazaspiro[5.5]undecane.2 hydrochloride]
 | 3000 nM | CCCN1C(=O)[C@H](CCCCNC(=O)OCc2ccccc2)NC(=O)C12CCN(CCc1ccccc1)CC2 [Example 5(2), (3S)-1-propyl-2,5-dioxo-3-(4-(N-benzyloxycarbonyl)aminobutyl)-9-(2-phenylethyl)-1,4,9-triazaspiro[5.5]undecane.hydrochloride]
